Here are results for three compounds from patent publication US20020018792A1, “Skin care anti-sebum compositions containing 3,4,4-trichlorocarbanilide” (Unilever Home & Personal Care USA, Division of Conopco, Inc., priority 2000, published 2002).

Data set [1] has as its system human sebocytes. Nature of the data set: in vitro sebum suppression: 14C-acetate label remaining in sebocytes. The following applies: for activity at 1 µM / activity at 10 µM: Homo sapiens, read-out: % of Control. The class given is cell-based. The method, then:
Secondary cultures of human sebocytes obtained from an adult […] were grown in 48-well tissue culture plates (Costar Corp.; Cambridge, Mass.) until two days post-confluence. Sebocyte growth medium consisted of Clonetics Keratinocyte Basal Medium (KBM) supplemented with 14 μg/ml bovine pituitary extract, 0.4 μg/ml hydrocortisone, 5 μg/ml insulin, […], 1.2×10^-10 M cholera toxin, 100 units/ml penicillin, and 100 μg/ml streptomycin. All cultures were incubated at 37° C. in the presence of 7.5% CO2. Medium was changed three times per week.
On the day of experimentation, the growth medium was removed and the sebocytes washed three times with sterile Dulbecco's Modified Eagle Medium (DMEM; phenol red free). Fresh DMEM was added to each sample (triplicates) with 1-5 microliter of test agent solubilized in ethanol. Controls consisted of addition of ethanol alone. Each plate was returned to the incubator for 20 hours.
This was followed by the addition of 14C-acetate buffer (5 mM final concentration, 56 mCi/mmol specific activity). Sebocytes were returned to the incubator for four hours afterwhich each culture was rinsed three times with phosphate buffered saline to remove unbound label. Radioactive label remaining in the sebocytes was harvested and counted using a Beckman scintillation counter.

Data set [2] has as its system human sebocytes. Nature of the data set: lactate dehydrogenase activity in sebocyte culture supernatant. Type of data set: cell-based. More on the design: key: A340 at 5 min minus initial reading; higher = more LDH. The following applies: after 20 hours. The method, then: For the experiments summarized in Tables 1 and 2, lactate dehydrogenase amount was also measured. After 20 hours, 25 μl of supernatant was removed from each well and transferred to a 96-well plate. A vial of lactate dehydrogenase reagent (LD-L-20; Sigma Diagnostics; Cat 228-20) was reconstituted with 20 ml of distilled water. 200 μl of this reconstituted reagent was added to each well and the plate immediately analyzed at 340 nm. After exactly five minutes at room temperature, the plate was re-analyzed at 340 nm. The amount of lactate dehydrogenase activity was calculated by subtracting the initial reading from the five minute reading (this value indicated below in column headed “LDH”). The higher the number, the more lactate dehydrogenase is present. Increased lactate dehydrogenase numbers are associated with cellular crisis. Experimental samples were compared to the value obtained with the ethanol treated control.

“Also recorded” adds a separate entry of the source. Read-outs that look alike come from different tables or passages of the source.

As for `O=C(Nc1ccc(Cl)cc1)Nc1ccc(Cl)c(Cl)c1` [TCC, 3,4,4-trichlorocarbanilide], the “% of Control” value in data set [1] (Table 1, 1 μM, 20 hours then 4 hours 14C-acetate) worked out at 70.4%; in data set [1] (Table 1, 10 μM, 20 hours then 4 hours 14C-acetate), 1.0%; in data set [1] (Table 1, 100 μM, 20 hours then 4 hours 14C-acetate) it was 0.8%; in data set [1] (Table 1, 1 mM, 20 hours then 4 hours 14C-acetate), 0.8%; in data set [1] (Table 2, 100 nM), 80.4%; in data set [1] (Table 2, 500 nM), 54.6%. Moreover, the “% of Control” value turned out to be 20.9% in data set [1] (Table 2, 1 μM); 97.6% in data set [1] (Table 3, 250 nM); 75.6% in data set [1] (Table 3, 500 nM); 81.4% in data set [1] (Table 3, 1 μM); 4.3% in data set [1] (Table 3, 2.5 μM). For the same compound, the “sebum suppressive effectiveness compared with Phenol Red” value in data set [1] (Table 2) is given as “more effective than Phenol Red”. For the same compound, the “sebum suppressive activity in the presence of retinol (retinoid)” value in data set [1] (Table 3) is “improved sebum suppressive activity; also recorded: significantly enhanced”. The sebum suppressive activity result in data set [1] (summary of Tables 1-3) was “had sebum suppressive activity”. For the same compound, the LDH is 0.039 in data set [2] (Table 1, 1 μM, 340 nm five minute minus initial reading, control 0.094); 0.059 in data set [2] (Table 1, 10 μM, 340 nm five minute minus initial reading, control 0.094); 0.114 in data set [2] (Table 1, 100 μM, 340 nm five minute minus initial reading, control 0.094); 0.190 in data set [2] (Table 1, 1 mM, 340 nm five minute minus initial reading, control 0.094); 0.137 in data set [2] (Table 2, 100 nM, control 0.154); 0.136 in data set [2] (Table 2, 500 nM, control 0.154). In data set [2] (Table 2, 1 μM, control 0.154), this compound displayed an LDH of 0.183.

As for `CC1=C(/C=C/C(C)=C/C=C/C(C)=C/CO)C(C)(C)CCC1` [Retinol], the activity at 1 µM in data set [1] (Table 3, 1 μM) is 104%. Further, the activity at 10 µM in data set [1] (Table 3, 10 μM) was found to be 102%.

`O=S1(=O)OC(c2ccc(O)cc2)(c2ccc(O)cc2)c2ccccc21` [Phenol Red]: the activity at 1 µM in data set [1] (Table 2, 1 μM) was found to be 91.4%. The activity at 10 µM in data set [1] (Table 2, 10 μM) came out at 70.9%. Further, the LDH in data set [2] (Table 2, 1 μM, control 0.154) worked out at 0.169; in data set [2] (Table 2, 10 μM, control 0.154) it was 0.237.
